Data from patent publication US6696490B2, “Slow release insect repellent compounds and process for delivering active” (priority 2002, dated 2004).
Entries after “also recorded” stand apart in the source; their conditions may differ.

Key:
Format in all cases: in vivo
[1] = Ethanol extraction of PMD- and PMDL-treated skin followed by GC-MS
Procedure: PMDL standard and ethanol skin extracts were also analyzed by GC-MS. The injection mode for PMDL was a split mode at 10:1 split ratio. The rest of conditions were the same as the ones used for PMD analysis by GC-MS as are listed above. The SPME apparently is a tube (e.g., dome or other like structure) strapped to measured area (e.g., arm) with an opening (e.g., at top) to insert analytical extractor which is essentially a needle used to trap/absorb volatiles released in the apparatus.
(§1) In this set, individual stock solutions of PMD and PMDL were prepared by placing 0.0978 g PMD and 0.1095 g in 5 mL of ethanol, respectively. Then five areas of skin, about 7 cm^2 on each arm, were selected. One of the five spots on each arm remained untreated as control and marked as a blank. The remaining four areas on the right arm were dosed with 32 μL PMDL and the remaining four areas on the left arm were dosed with 36 μL of PMD. Untreated area 1, and the treated area on each arm marked as 2, 3, 4, and 5, were then extracted with 4 mL of ethanol for a period of 3 min at 0, 15, 60 and 150 min intervals, respectively. Collected extracts were then analyzed by GC-MS for their PMD and PMDL and by APCI-MS for their linoleic acid contents (FIGS. 4, 5, 6 and 7). FIG. 4 is plot of PMD, FIG. 5 is plot of PMDL; and FIGS. 6 and 7 are plots for linoleic acid.

[2] = SPME/GC-MS of PMD generated by hydrolysis of PMDL placed on the skin; details: 100 μg/cm^2 PMDL on skin, sampling 0 to 300 min, FIG. 3a
Procedure: Solid Phase Microextraction (SPME) is a sample preparation technique which has been used for trapping volatiles. In the subject invention, SPME was used to extract and concentrate PMD vapour (by-product of PMDL hydrolysis) in the headspace. The extracted analytes were then analyzed by Gas Chromatography-Mass Spectroscopy (GC-MS). The SPME fiber used here was from Supelco, a 2.0 cm long, StableFlex fiber (23-gauge needle), 50/30 divinylenzene/carboxene on polydimethylsiloxane. Agilent 6890 Gas Chromatography equipped with Agilent 5973 Mass Selective Detector and Chemstation, G1701CA software were used for analyzing and identifying PMD. GC was equipped with a 0.25 […] HP-5 capillary column with 0.25 micrometer of cross-linked 5% Phenyl Methyl Siloxane. The GC oven was programmed to increase its temperature at 2 min from the initial temperature of 60° C. to 300° C. at 6° C./min. The injector temperature and the head pressure were 250° C. and 8.6 psi, respectively. The flow rate of the carrier gas (helium) was 1 mL/min The total flow rate was set at 25 mL/min Purge was off for 0.5 min, i.e. from a split mode into a splitless mode after the program was started. Agilent 5973 Mass Selective Detector with an ion source by an electron impact (El) data system was used for mass spectrometric identification. […]

[3] = Ethanol extraction of PMDL-treated skin followed by APCI-MS for linoleic acid; details: FIGS. 6 and 7
Procedure: as §1, with “Another set of experiments was conducted to confirm the results obtained earlier from SPME-GC for PMD & PMDL and also to confirm hydrolysis of PMDL into linoleic acid and PMD on the skin by ethanol extraction of the skin followed by GC-MS and APCI-MS analysis of the collected extracts. In” for “In”, “FIG. 4 is plot of PMD, FIG. 5 is plot of PMDL; and FIGS. 6 and 7 are plots for linoleic acid.” left out
APCI-MS was used to analyze linoleic acid in ethanol skin extracts. […] Samples from the last set of experiments, as described in the […] were analyzed for their linoleic acid level using this technique. Each extracted sample was analyzed in triplicate.

[4] = SPME/GC-MS of headspace above forearm skin dosed with PMD (evaporation of PMD)
Procedure: Solid Phase Microextraction (SPME) is a sample preparation technique which has been used for trapping volatiles. In the subject invention, SPME was used to extract and concentrate PMD vapour (by-product of PMDL hydrolysis) in the headspace. The extracted analytes were then analyzed by Gas Chromatography-Mass Spectroscopy (GC-MS). The SPME fiber used here was from Supelco, a 2.0 cm long, StableFlex fiber (23-gauge needle), 50/30 divinylenzene/carboxene on polydimethylsiloxane. Agilent 6890 Gas Chromatography equipped with Agilent 5973 Mass Selective Detector and Chemstation, G1701CA software were used for analyzing and identifying PMD. GC was equipped with a 0.25 […] HP-5 capillary column with 0.25 micrometer of cross-linked 5% Phenyl Methyl Siloxane. The GC oven was programmed to increase its temperature at 2 min from the initial temperature of 60° C. to 300° C. at 6° C./min. The injector temperature and the head pressure were 250° C. and 8.6 psi, respectively. The flow rate of the carrier gas (helium) was 1 mL/min The total flow rate was set at 25 mL/min Purge was off for 0.5 min, i.e. from a split mode into a splitless mode after the program was started. Agilent 5973 Mass Selective Detector with an ion source by an electron impact (El) data system was used for mass spectrometric identification. The detector was used in a scan mode to scan mass ranging from a Low Mass of 40 to a High Mass of 550. Solvent delay time was 3.5 min. Total sample run time was 60 min.
To determine the extent of evaporation of PMD from the skin matrix over a period of time (correlating to amount of PMD produced by hydrolysis from PMD-L), a number of experiments were carried out. In these experiments, SPME fiber was inserted into a headspace of a glass semi-ball chamber fastened on forearm by an elastic band. […]
For a first set of SPME experiments, a PMD solution at concentration of 21800 μg/mL was prepared by placing 0.218 g of PMD crystals in 10 mL of absolute ethanol. […] The SPME glass chamber and fibers were then removed and the SPME fiber were analyzed by GC-MS for measurement of PMD. […]

Molecule | levels of PMDL on PMDL treated skin (GC-MS peak area of ethanol extracts) ([1]; leave on time 0 to 150 min, FIG. 5) | level of PMD on PMDL treated skin ([1]; over a 150 minute period) | PMD signal generated from hydrolysis of PMDL on the skin over time (SPME/GC-MS) [2] | PMD signal generated from hydrolysis of PMDL on the skin over time (SPME/GC-MS) ([2]; listed as PMD-L) | linoleic acid level on PMDL treated skin over time ([3]; APCI-MS of ethanol extracts at 0, 15, 60 and 150 min) | level of linoleic acid in PMDL treated skin compared to untreated skin (blank) ([3]; APCI-MS of ethanol extracts) | time after which active is no longer present ([1]; PMD delivered in non-ester form, FIG. 4) | PMD levels on PMD treated skin (GC-MS peak area of ethanol extracts) ([1]; leave on time 0 to 150 minutes, FIG. 4) | levels of PMD on the skin over leave on time (SPME/GC-MS) ([4]; 40 μg/cm^2 PMD applied neat, 0 to 300 minutes, FIG. 3b) | time over which PMD signal was followed and detected ([4]; 40 μg/cm^2 PMD on forearm skin, SPME extraction time 30 min, FIG. 3b) | time after which PMD signal could not be detected ([4]; 40 μg/cm^2 PMD on forearm skin, SPME sampling time 5 min)
3,8-p-Menthanedilinoleate [PMDL] | a trend of decrease in the levels of PMDL on the skin | simultaneous increase in the level of PMD on the skin | presence of high levels of PMD released from the skin at the early stage and then through a decrease in the PMD levels over period of time | initial sharp increase in the concentration of PMD | an increase in linoleic acid level over the 15 to 60 min period followed by a decrease at 150 min; also recorded: increase in linoleic on treated skin in first hour followed by a decrease | substantially higher in the treated skin samples compared to the untreated skin | – | – | – | – | –
CC1CCC(C(C)(C)O)C(O)C1 (centres unmarked) [PMD, 3,8-p-menthanediol, reference compound] | – | – | – | – | – | – | 2.5 h | decreased as the leave on time increased from 0 to 150 minutes; also recorded: decrease of PMD | decreased as the leave on time proceeded from 0 to 300 minutes | up to 5 hours | 2 h
